The target in assay [1] is T1, human dopamine D2L receptors (long isoform) (Homo sapiens, UniProt P14416).
T1 construct: expressed in transfected cells; membranes)
Put plainly: Dopamine D2L receptor binding, [125I] iodospiperone displacement. The settings on record: ratio of Ki at human D2L to Ki at human D3, HEK-293 membranes. How it is done: (§1) Each as-say mixture was run in triplicate. • The incubation buffer contained 50 mM tris, 120 mM NaCl, 5 mM KCl, 2 mM CaCl2, 2 mM MgCl2 and 0.1% bovine serum albumin, 10 μM quinolone and 0.1% ascorbic acid (prepared fresh daily). […] Each assay mixture was run in triplicate. • The incubation buffer contained 50 mM tris, 120 mM NaCl, 5 mM KCl, 2 mM CaCl2, 2 mM MgCl2 and 0.1% bovine serum albumin. The buffer was adjusted to pH 7.4 with HCl. c) Measurement and Analysis: • After having been incubated at 25° C. for 60 minutes, the assay mixtures were filtered through a Whatman GF/B glass fiber filter under vacuum using a cell collecting device. The filters were transferred to scintillation viols using a filter transfer system. After 4 ml of Ultima Gold® (Packard) have been added, the samples were shaken for one hour and the radioactivity was then counted in a Beta-Counter (Packard, Tricarb 2000 or 2200CA).

Assay [2] has as its target T2, human dopamine D3 receptors (Homo sapiens, UniProt P35462).
T2 construct: expressed in transfected cells; membranes)
Put plainly: Dopamine D3 receptor binding, [125I]-iodosulpride displacement. Conditions: membranes of HEK-293 cells, 0.1 nM [125I]-iodosulpride. Here is the method:
as §1

The values below come from patent US8492540B2, “1,2,4,-triazin-3,5-dione compounds suitable for treating disorders that respond to modulation of the dopamine D3 receptor” (Abbott GmbH & Co. KG, priority 2007, dated 2013).

Each structure is given as a SMILES string. A value given as a limit tells only on which side of the number the result lay.

T2 sequence (P35462 whole entry): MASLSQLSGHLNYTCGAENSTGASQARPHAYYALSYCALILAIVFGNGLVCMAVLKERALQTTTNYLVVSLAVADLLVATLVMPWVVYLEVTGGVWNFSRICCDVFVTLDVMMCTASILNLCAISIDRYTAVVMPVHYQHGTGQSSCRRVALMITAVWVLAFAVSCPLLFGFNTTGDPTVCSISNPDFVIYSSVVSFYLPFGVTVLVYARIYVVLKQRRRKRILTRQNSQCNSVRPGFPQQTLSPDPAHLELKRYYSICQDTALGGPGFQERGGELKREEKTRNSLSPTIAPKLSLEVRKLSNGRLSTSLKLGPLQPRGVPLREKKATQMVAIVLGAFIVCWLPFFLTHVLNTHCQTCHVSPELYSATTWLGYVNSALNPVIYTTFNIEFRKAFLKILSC
T1 sequence (P14416 whole entry, canonical isoform): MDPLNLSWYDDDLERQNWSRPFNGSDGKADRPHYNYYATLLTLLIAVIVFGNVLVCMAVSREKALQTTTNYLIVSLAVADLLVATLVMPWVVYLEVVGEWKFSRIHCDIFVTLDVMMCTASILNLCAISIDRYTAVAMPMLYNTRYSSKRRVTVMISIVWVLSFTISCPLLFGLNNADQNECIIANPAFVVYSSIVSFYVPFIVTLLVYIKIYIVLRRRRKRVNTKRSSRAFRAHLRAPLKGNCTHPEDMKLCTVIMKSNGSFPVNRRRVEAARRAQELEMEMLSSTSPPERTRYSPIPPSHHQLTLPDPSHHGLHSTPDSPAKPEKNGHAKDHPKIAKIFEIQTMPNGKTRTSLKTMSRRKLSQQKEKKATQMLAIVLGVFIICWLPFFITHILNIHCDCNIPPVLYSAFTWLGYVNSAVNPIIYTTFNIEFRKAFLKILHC

For `CC(C)(C)c1cc(N2CCN(CCCCn3ncc(=O)[nH]c3=O)CC2)nc(C(C)(C)C)n1.O=C(O)C(F)(F)F` [Example 4, 2-{4-[4-(2,6-Di-tert-butyl-pyrimidin-4-yl)-piperazin-1-yl]butyl}-2H-[1,2,4]triazine-3,5-dione trifluoroacetate], the “Selectivity vs. D2L, Ki(D2L)/Ki(D3)” value in assay [1] is “++ (++>20)”. Also, the Ki (in general, the equilibrium dissociation constant of an inhibitor or competing ligand from its target) in assay [2] is under 10 nM.
Take `CCCc1cc(N2CCN(CCCCn3nc(C)c(=O)[nH]c3=O)CC2)nc(C(C)(C)C)n1.Cl` [Example 7, 2-{4-[4-(2-tert-Butyl-6-propyl-pyrimidin-4-yl)-piperazin-1-yl]butyl}-6-methyl-2H-[1,2,4]triazine-3,5-dione hydrochloride]: the “Selectivity vs. D2L, Ki(D2L)/Ki(D3)” value in assay [1] is reported as “++ (++>20)”. Further, the Ki in assay [2] is under 10 nM.
The like results for `CC(C)(C)c1nc(N2CCN(CCCCn3ncc(=O)[nH]c3=O)CC2)cc(C(F)(F)F)n1.Cl` [Example 1, 2-{4-[4-(2-tert-Butyl-6-trifluoromethyl-pyrimidin-4-yl)-piperazin-1-yl]butyl}-2H-[1,2,4]triazine-3,5-dione hydrochloride] were, in that order, “++ (++>20)” and under 10 nM.
For `Cc1nn(CCCCN2CCN(c3cc(C(F)(F)F)nc(C(C)(C)C)n3)CC2)c(=O)[nH]c1=O.Cl` [Example 6, 2-{4-[4-(2-tert-Butyl-6-trifluoromethyl-pyrimidin-4-yl)-piperazin-1-yl]butyl}-6-methyl-2H-[1,2,4]triazine-3,5-dione hydrochloride] the same measures were “++ (++>20)” and under 10 nM.
For `CC(C)(C)c1nc(C2CCC2)cc(N2CCN(CCCCn3ncc(=O)[nH]c3=O)CC2)n1` [Example 5, 2-{4-[4-(2-tert-Butyl-6-cyclobutyl-pyrimidin-4-yl)-piperazin-1-yl]butyl}-2H-[1,2,4]triazine-3,5-dione] the same measures were “++ (++>20)” and under 10 nM.
As for `CC(C)(C)c1nc(C(F)F)cc(N2CCN(CCCCn3ncc(=O)[nH]c3=O)CC2)n1.Cl` [Example 2, 2-{4-[4-(2-tert-Butyl-6-difluoromethyl-pyrimidin-4-yl)-piperazin-1-yl]butyl}-2H-[1,2,4]triazine-3,5-dione hydrochloride], in assay [1], the “Selectivity vs. D2L, Ki(D2L)/Ki(D3)” value is “++ (++>20)”. Further, the Ki in assay [2] was under 10 nM.
With `CCCc1cc(N2CCN(CCCCn3ncc(=O)[nH]c3=O)CC2)nc(C(C)(C)C)n1` [Example 3, 2-{4-[4-(2-tert-Butyl-6-propyl-pyrimidin-4-yl)-piperazin-1-yl]butyl}-2H-[1,2,4]triazine-3,5-dione], in assay [1], the “Selectivity vs. D2L, Ki(D2L)/Ki(D3)” value is on record as “+++ (+++>50)”. This compound also gave a Ki in assay [2] of under 10 nM.
